Test [1] addresses T1, Galectin-1 (Homo sapiens (Human), UniProt P09382). The settings on record: T. Delaine, 2016; read-out: affinity to Galectin-1; cited from earlier work.
Target sequence in this assay (P09382 whole entry, species assumed): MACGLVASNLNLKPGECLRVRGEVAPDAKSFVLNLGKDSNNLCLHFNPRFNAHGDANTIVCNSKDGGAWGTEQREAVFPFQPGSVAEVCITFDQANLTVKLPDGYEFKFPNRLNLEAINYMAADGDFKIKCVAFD
Test [2] concerns the target T1, Galectin-1. Kind of test: Fluorescence anisotropy assay, inhibition of galectin / fluorescein tagged saccharide probe interaction. Type of test: binding. (Polarisation of emitted light reports the rotation of a fluorescent probe.)
Target sequence in this assay (P09382 whole entry): as the sequence (P09382 whole entry, species assumed) above
Test [3] addresses Galectin-3 (Homo sapiens (Human), UniProt P17931). The test is described as above. It counts as binding. How it is done: Experimental Procedures (Evaluation of Kd Values)
The affinity of Example 1-33 for galectins were determined by a fluorescence anisotropy assay where the compound was used as an inhibitor of the interaction between galectin and a fluorescein tagged saccharide probe as described Sörme, P., Kahl-Knutsson, B., Huflejt, M., Nilsson, U. J., and Leffler H. (2004) Fluorescence polarization as an analytical tool to evaluate galectin-ligand interactions. Anal. Biochem. 334: 36-47, (Sörme et al., 2004) and Monovalent interactions of Galectin-1 By Salomonsson, Emma; Larumbe, Amaia; Tejler, Johan; Tullberg, Erik; Rydberg, Hanna; Sundin, Anders; Khabut, Areej; Frejd, Torbjorn; Lobsanov, Yuri D.; Rini, James M.; et al, From Biochemistry (2010), 49(44), 9518-9532, (Salomonsson et al., 2010).

Test [4] has as its system galectins. Particulars: cited from earlier work.

The structures appear in SMILES notation. Where two headings read alike, the source gives them in different places.

Sequence of Galectin-3 (P17931 whole entry): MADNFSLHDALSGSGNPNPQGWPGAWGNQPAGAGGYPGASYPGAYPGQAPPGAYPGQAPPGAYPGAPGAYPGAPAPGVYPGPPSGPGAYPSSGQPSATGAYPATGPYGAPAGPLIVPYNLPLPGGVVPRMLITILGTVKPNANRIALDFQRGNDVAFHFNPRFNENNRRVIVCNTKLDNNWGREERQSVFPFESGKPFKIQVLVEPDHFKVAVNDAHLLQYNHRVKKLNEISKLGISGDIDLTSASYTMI

In the case of `OCC1O[C@@H](SC2O[C@H](CO)C(O)C(n3cc(-c4ccsc4)nn3)[C@H]2O)C(O)C(n2cc(-c3ccsc3)nn2)[C@H]1O` (stereo partly drawn), the Kd in test [1] is under 0.01 µM.
On to `Cc1ccc(S[C@H]2O[C@H](CO)[C@H](O)[C@H](n3cc(-c4csc(O)n4)nn3)[C@H]2O)cc1Cl` [Example 26, 3-Chloro-4-methylphenyl 3-deoxy-3-[4-(2-hydroxythiazol-4-yl)-1H-1,2,3-triazol-1-yl]-1-thio-α-D-galactopyranoside], for which the figures for the Kd in test [2] and in test [3] were 0.082 µM and 6.6 µM, respectively.
In the same order, the values of `O=C(O)c1ncc(Cl)cc1S[C@H]1O[C@H](CO)[C@H](O)[C@H](n2cc(-c3csc(O)n3)nn2)[C@H]1O` [Example 28, 2-carboxy-5-chloropyridyl 3-deoxy-3-[4-(2-hydroxythiazol-4-yl)-1H-1,2,3-triazol-1-yl]-1-thio-α-D-galactopyranoside] are 0.046 µM and 5.7 µM.
As to `OC[C@H]1O[C@H](Sc2cnc(C(F)(F)F)c(Br)c2)[C@H](O)[C@@H](n2cc(-c3nc(Cl)c(Cl)s3)nn2)[C@H]1O` [Example 29, 5-Bromo-6-trifluoromethyl-pyridine-3-yl 3-deoxy-3-[4-(4,5-dichlorothiazol-2-yl)-1H-1,2,3-triazol-1-yl]-1-thio-α-D-galactopyranoside], the Kd in test [2] came to 0.39 µM; in test [3], 0.069 µM.
Take `OC[C@H]1O[C@H](Sc2cc(Cl)c(Cl)cc2F)[C@H](O)[C@@H](n2cc(-c3csc(O)n3)nn2)[C@H]1O` [Example 31, 3,4-Dichloro-6-fluoro-phenyl 3-deoxy-3-[4-(2-hydroxythiazol-4-yl)-1H-1,2,3-triazol-1-yl]-1-thio-α-D-galactopyranoside]: the results for the Kd in test [2] and in test [3] were 0.013 µM and 4.6 µM, respectively.
`CN(C)C(=O)c1ccc(Cl)cc1S[C@H]1OC(CO)[C@H](O)[C@H](n2cc(-c3csc(O)n3)nn2)C1O` (stereo partly drawn) [Example 32, 4-Chloro-N,N′-dimethylbenzamide-2-yl 3-deoxy-3-[4-(2-hydroxythiazol-4-yl)-1H-1,2,3-triazol-1-yl]-1-thio-α-D-galactopyranoside]: the Kd in test [2] came to 0.044 µM; in test [3] it was 2.1 µM.
Turning to `CN(C)C(=O)c1ncc(Cl)cc1S[C@H]1OC(CO)[C@H](O)[C@H](n2cc(-c3csc(O)n3)nn2)C1O` (stereo partly drawn) [Example 33, 5-Chloro-N,N′-dimethyl-picolinamide-3-yl 3-deoxy-3-[4-(2-hydroxythiazol-4-yl)-1H-1,2,3-triazol-1-yl]-1-thio-α-D-galactopyranoside], the Kd came out at 0.054 µM in test [2] and 1.7 µM in test [3].
Consider `O=C[C@H](O)[C@@H](O)[C@@H](O)[C@H](O)CO` [Galactose, D-galactose], for which the “affinity relative to lactose” value in test [4] (compared with lactose) is 50-100 times lower.
With `OC[C@H]1O[C@@H](O[C@H]2[C@H](O)[C@@H](O)C(O)O[C@@H]2CO)[C@H](O)[C@@H](O)[C@H]1O` (stereo partly drawn) [Lactose], the Kd in test [4] (Leffler, 2001, Leffler et al., 2004, read-out: Kd, all galectins) was 100 to 1000 µM.

(Values after patent US11046725B2, “Galactoside inhibitor of galectins” (GALECTO BIOTECH AB, priority 2018, dated 2021).)
